Source: patent publication US20230398130A1, “METHODS AND COMPOSITIONS FOR DIFFERENTIATING STEM CELLS” (Massachusetts Institute of Technology, priority 2020, published 2023)
Entries after “also recorded” stand apart in the source; their conditions may differ. Where two headings read alike, the source gives them in different places.

Experiments:
ISC-enriched organoids [1] = test: Primary screen, 384-well 2.5-D organoid differentiation (ENR+CD, 6 days, Target Selective Inhibitor Library, vs whole-plate median): ATP (CellTiter-Glo 3D, CTG); settings: standard z score of FC
ISC-enriched organoids [2] = test: Secondary (validation) screen, 384-well 2.5-D, ENR+CD 6 days, n=8 wells, vs ENR+CD+DMSO control: carbachol-induced lysozyme secretion (LYZ.S); assay type: cell-based, murine
Experimental: (§1) Drugs were tested at a narrowed dose range around each treatment's identified optimal dose from the primary screen (4× below, 2× above and below).
(§2) High-throughput screening.
(§3) Secondary lysozyme secretion assay screen. Confirmatory secondary screening with primary hits was performed using the above 384-well plate method. The screen was conducted with 4-plate replicates with a base media of ENR+CD. Media was supplemented with compound at day 0 and day 3 (n=8 well replicates per dose) at four different doses: two-fold above, two-fold below, and four-fold below the optimal final dose for each respective treatment. Additionally, each plate carried a large number of ENR+DMSO or ENR+CD+DMSO (vehicle) control wells (n=100 for ATP, and n=25 for LYZ.NS and LYZ.S) for robust normalization. ATP, non-stimulated lysozyme activity and CCh-stimulated lysozyme activity was again measured and the collected data was again processed in a custom R-script, per primary screen with slight modification. Values were log10 transformed, and a plate-wise FC was calculated for each well based on the median value of ENR+CD+DMSO (vehicle) control wells to normalize plate to plate variability.

Paneth cells = test: Flow cytometry of 3D-cultured intestinal organoids (ENR+CD, 6 days): Paneth cell fraction (lysozyme-positive, CD24-mid); assay type: cell-based, murine; settings: ENR+CD 6 days, 3-D culture
Experimental: Flow cytometry analysis (3D culture). ISC-enriched organoids cultured in 3D Matrigel with ENRCV media were passaged to 24-well plate in 3D Matrigel with ENRCV. At day zero, media were replaced to ENRCD with or without indicated compounds, and media were replaced every other day. […] Flow cytometry was performed using an LSR Fortessa (BD; Koch Institute Flow Cytometry Core at MIT). The data were analyzed using FlowJo v10 software.
Single live cells were selected by several gating strategies and Paneth cells were identified as lysozyme-high, CD24-mid, side scatter-high (SSC-high) (FIG. 27E). […] To evaluate whether the culture media supplements C and D may alter the effects of the 6 hits, Applicants also performed lysozyme assay in the canonical ENR culture condition in 3-D (because Paneth cells exist in an immature state within ENR, Applicants were unable to robustly quantify Paneth cell number via flow cytometry).
(§4) Flow cytometry. ISC-enriched organoids in 3D Matrigel culture were passaged to a 48-well plate and induced differentiation for 6 days by ENR+CD media containing DMSO or each drug indicated in the figures. DMSO- or drug-containing media were changed every other day. […] After vigorous pipetting and incubation at 37° C. for 15 min, the cell solution was diluted twice with basal media and centrifuged at 300 rcf for 3 min. […] The cell solution was centrifuged again at 300 rcf for 3 min at 4° C. to pellet the cells. […] Cells were centrifuged again for 3 min at 300 rcf and blocked with staining buffer (FACS buffer containing 0.5% Tween20 (Sigma, P2287)) for 15 min at RT in the dark. […] Flow cytometry was performed using an LSR Fortessa (BD; Koch Institute Flow Cytometry Core at MIT). Flow cytometry data were analyzed using FlowJo X v10.6.1 software.
Live Paneth cells were identified as LYZ-high, CD24-mid, side scatter-high (SSC-high) (FIG. 50F).
as §4, with “organoids in 3-D Matrigel culture” for “organoids in 3D Matrigel culture”, “to a 24- or 48-well plate” for “to a 48-well plate”

ISC-enriched organoids [3] = test: Secondary (validation) screen, 384-well 2.5-D, ENR+CD 6 days, n=8 wells, vs ENR+CD+DMSO control: basal lysozyme secretion (LYZ.NS); assay type: cell-based, murine
Experimental: as §1, §2, §3

ISC-enriched organoids [4] = test: Secondary (validation) screen, 384-well 2.5-D, ENR+CD 6 days, n=8 wells, vs ENR+CD+DMSO control: ATP (CTG); assay type: cell-based, murine
Experimental: as §1, §2, §3

ISC-enriched organoids [5] = test: Lysozyme secretion assay, 3-D organoids in ENR+CD, normalized to ATP; assay type: cell-based, murine; settings: for Paneth cell differentiation (functional LYZ secretion), in combination with KPT-330: 6-day ENR+CD differentiation with 160 nM KPT-330; for Paneth cell differentiation (functional LYZ secretion), compound alone: 6-day ENR+CD differentiation, 10 μM SR11302, 20 nM Cobimetinib, others over a dose range
Experimental: Lysozyme assay (3D culture). ISC-enriched organoids cultured in 3D Matrigel with ENRCV media were passaged to 48-well plate in 3D Matrigel with ENRCV. At day zero, media were replaced to ENR or ENRCD with or without indicated compounds, and media were replaced every other day. At day six, cells were washed twice with basal media and treated with carbamylcholine chloride (Sigma, C4382) for 3 hours. Media were collected and lysozyme activity was measured by EnzChek Lysozyme Assay Kit (ThermoFisher, E22013).
(§5) Lysozyme secretion assay. ISC-enriched organoids in 3D Matrigel culture were passaged to a 48- or 96-well plate and cultured with ENR or ENR+CD media containing DMSO or each drug for 6 days. DMSO- or drug-containing media were changed every other day. On day 6, cells were washed with basal media twice and treated with basal media with or without 10 μM carbamoylcholine chloride for 3 h in a CO2 incubator at 37° C. A part of the conditioned media was collected and used for lysozyme assay (Thermo, E-22013) following the manufacturer's instruction. The fluorescence was measured using excitation/emission of 485/530 nm. CellTiter-Glo 3D Reagent (Promega, G9681) was added afterward, and the cell culture plate was incubated on an orbital shaker at RT for 30 min to induce cell lysis and to stabilize the luminescent signal. The solution was replaced to a 96-well white microplate, and luminescent signals were measured by a microplate reader (infinite M200, Tecan). The standard curve was prepared by diluting recombinant ATP (Promega, P1132). For both assays, a polynomial cubic curve was fitted to a set of standard data, and each sample value was calculated on the Microsoft Excel.
as §5, with “in 3-D” for “in 3D”, “μM carbachol” for “μM carbamoylcholine chloride”, “3 hours” for “3 h”, “C. Conditioned” for “C. A part of the conditioned”, “nm. CTG” for “nm. CellTiter-Glo”, “Reagent” for “Reagent (Promega, G9681)”

[6] = system: ISC-enriched organoid cultures; assay type: cell-based
Experimental: Using the ISC-enriched organoid cultures, Applicants sought to assess the role of vitamin D's multiple metabolites on ISC proliferation and differentiation in vitro. Treatment of ISC-enriched organoid cultures with multiple vitamin D metabolites at 50 nM drives a reduction in cell number after 4 days of exposure (FIG. 45A). This reduction is attributed to reduced ISC self-renewal and differentiation to terminal epithelial cell types. To confirm increased differentiation of ISC-enriched organoids, mRNA markers of epithelial cells were assessed via quantitative PCR (FIG. 45B). […] By enhancing ISC differentiation, Applicants hypothesized that it may be possible to enhance barrier repair or integrity in IBD. Such effect could act synergistically with other known effects of vitamin D, and provide enhanced therapeutic benefit.
After observing that calcitriol, the primary active vitamin D metabolite, drove the most profound differentiation effect on in vitro ISC cultures, Applicants sought to investigate whether or not this effect is dose-dependent. Again, Applicants used the ISC-enriched organoid culture, and exposed varying concentrations of calcitriol for 4-day treatment periods.
Given that WNT signaling is central to ISC self-renewal and maintenance, Applicants investigated the role of calcitriol on ISC proliferation and WNT signal activity.

ISC-enriched organoids [7] = test: Primary screen, 384-well 2.5-D organoid differentiation (ENR+CD, 6 days): basal lysozyme secretion (LYZ.NS); assay type: cell-based, murine; settings: SSMD in LYZ.NS and LYZ.S assays
Text: as §2

[8] = calcitriol 1 nM to 100 nM, 4-day treatment

Cc1cn(-c2cc(NC(=O)c3ccc(C)c(Nc4nccc(-c5cccnc5)n4)c3)cc(C(F)(F)F)c2)cn1 [Nilotinib (AMN-107), Nilotinib]
Z.CTG (ISC-enriched organoids [1]; Dose 0.08 uM): 0.769 | Z.CTG (ISC-enriched organoids [1]; Dose 0.40 uM): 0.831 | Z.CTG (ISC-enriched organoids [1]; Dose 2.00 uM): 0.577 | Z.CTG (ISC-enriched organoids [1]; Dose 10.00 uM): −0.029 | Z.LYZ.S (ISC-enriched organoids [2]; Dose 0.10 uM): 0.339 | repSSMD.LYZ.S (ISC-enriched organoids [2]; Dose 0.10 uM): 0.652 | Z.LYZ.S (ISC-enriched organoids [2]; Dose 0.20 uM): 0.897 | repSSMD.LYZ.S (ISC-enriched organoids [2]; Dose 0.20 uM): 1.324 | Z.LYZ.S (ISC-enriched organoids [2]; Dose 0.80 uM): 1.099 | repSSMD.LYZ.S (ISC-enriched organoids [2]; Dose 0.80 uM): 0.953 | Z.LYZ.S (ISC-enriched organoids [2]; dose 0.40 uM): −0.053 | repSSMD.LYZ.S (ISC-enriched organoids [2]; dose 0.40 uM): −0.055 | mature Paneth cell population within organoids (Paneth cells; hit compound at most potent dose from 2.5-D screening, vs control): significantly decreased Paneth abundance | total cell number (Paneth cells; hit compound at most potent dose): significantly increasing total cell number | Z.LYZ.NS (ISC-enriched organoids [3]; Dose 0.10 uM): 0.734 | repSSMD.LYZ.NS (ISC-enriched organoids [3]; Dose 0.10 uM): 1.309 | Z.LYZ.NS (ISC-enriched organoids [3]; Dose 0.20 uM): 1.283 | repSSMD.LYZ.NS (ISC-enriched organoids [3]; Dose 0.20 uM): 1.683 | Z.LYZ.NS (ISC-enriched organoids [3]; Dose 0.80 uM): 1.317 | repSSMD.LYZ.NS (ISC-enriched organoids [3]; Dose 0.80 uM): 1.063 | Z.LYZ.NS (ISC-enriched organoids [3]; dose 0.40 uM): 0.805 | repSSMD.LYZ.NS (ISC-enriched organoids [3]; dose 0.40 uM): 1.064 | Z.CTG (ISC-enriched organoids [4]; Dose 0.10 uM): 0.830 | repSSMD.CTG (ISC-enriched organoids [4]; Dose 0.10 uM): 0.571 | Z.CTG (ISC-enriched organoids [4]; Dose 0.20 uM): 1.098 | repSSMD.CTG (ISC-enriched organoids [4]; Dose 0.20 uM): 0.777 | Z.CTG (ISC-enriched organoids [4]; Dose 0.80 uM): 2.104 | repSSMD.CTG (ISC-enriched organoids [4]; Dose 0.80 uM): 1.535 | Z.CTG (ISC-enriched organoids [4]; dose 0.40 uM): 1.275 | repSSMD.CTG (ISC-enriched organoids [4]; dose 0.40 uM): 0.902

O=C(c1ccc(F)c(F)c1Nc1ccc(I)cc1F)N1CC(O)([C@@H]2CCCCN2)C1 [cobimetinib]
Paneth cell differentiation (functional LYZ secretion), in combination with KPT-330 (ISC-enriched organoids [5]): differentiation was enhanced; also recorded: significantly enhance Paneth cell differentiation; also recorded: proved synergistic in combination with KPT-330 | Paneth cell differentiation (functional LYZ secretion), compound alone (ISC-enriched organoids [5]): did not significantly alter Paneth cell differentiation

CC1=C(/C=C/C(=C/C=C/C(C)=C/C(=O)O)c2ccc(C)cc2)C(C)(C)CCC1 [SR11302]
Paneth cell differentiation (functional LYZ secretion), in combination with KPT-330 (ISC-enriched organoids [5]): significantly decreases functional LYZ secretion | Paneth cell differentiation (functional LYZ secretion), compound alone (ISC-enriched organoids [5]): also decreases functional LYZ secretion; also recorded: significantly decreases functional LYZ secretion

c1ccc2c(CCNc3ccc(Nc4ccncc4)cc3)c[nH]c2c1 [serdemetan]
Paneth cell differentiation (functional LYZ secretion), in combination with KPT-330 (ISC-enriched organoids [5]): neither P53 inhibitor altered Paneth cell differentiation; also recorded: did not alter Paneth cell differentiation | Paneth cell differentiation (functional LYZ secretion), compound alone (ISC-enriched organoids [5]): neither P53 inhibitor altered Paneth cell differentiation; also recorded: did not alter Paneth cell differentiation

C=C1/C(=C\C=C2/CCC[C@]3(C)[C@@H]([C@H](C)CCCC(C)(C)O)CC[C@@H]23)C[C@@H](O)C[C@@H]1O [calcitriol, 1α,25-dihydroxyvitamin D3]
ISC differentiation (mRNA markers of epithelial cells) ([6]; 50 nM, 4 days, vs control culture): having the most profound effect | cell number [6, 8]: a decrease in cell number | markers of intestinal epithelial cells (mRNA), ISC differentiation [6, 8]: an increase in markers of intestinal epithelial cells in a dose-dependent manner | markers of intestinal epithelial cells (mRNA), ISC differentiation ([6]; calcitriol 1 nM to 100 nM, 4-day treatment, listed as Calcitriol): dose-dependent differentiation effect, primarily to goblet cells | cell cycle markers ([6]; calcitriol, 4 days): a weak connection to cell cycle inhibition | proliferation (Ki67) ([6]; calcitriol, 4 days, all doses): minimal change in proliferation at all doses | LGR5 expression ([6]; increasing calcitriol dosage, 4 days): a clear reduction in LGR5

Cc1ccc(C(=O)Cn2c3c(sc2=N)CCCC3)cc1 [pifithrin-a]
Paneth cell differentiation (functional LYZ secretion), in combination with KPT-330 (ISC-enriched organoids [5]): neither P53 inhibitor altered Paneth cell differentiation; also recorded: did not alter Paneth cell differentiation | Paneth cell differentiation (functional LYZ secretion), compound alone (ISC-enriched organoids [5]): neither P53 inhibitor altered Paneth cell differentiation; also recorded: did not alter Paneth cell differentiation

COc1cc2c(Nc3ccc(NC(=O)c4ccccc4)cc3)ncnc2cc1OCCCN1CCOCC1 [ZM447439, reference compound]
primary screen hit call (ISC-enriched organoids [7]): lower-effect size hit | Paneth cell differentiation (functional LYZ secretion), compound alone (ISC-enriched organoids [5]): did significantly increase Paneth cell differentiation
